Results: patent publication US20040126751A1 (priority 2002, published 2004)
Values joined by “and” are separate entries in the source; they are usually repeats but may differ in a detail not shown here. Equal entries are not always repeated.

Columns and labels:
PC 12 cells = settings: NADH-supplementation of PC 12 cells; cited from earlier work
[1] = system: ATP-dependent potassium current (IK(ATP)); test: whole-cell patch-clamp of pinacidil-primed IK(ATP) in isolated ventricular myocytes; format: cell-based, guinea pig; settings: for outward current density at +30 mV under control conditions: before pinacidil
Excerpt: The electrophysiological properties of a cardiac myocyte are strongly affected by its energetic condition. Particularly, the adenosine triphosphate (ATP)-dependent potassium current (IK(ATP)) is known to link bioenergetic metabolism with membrane excitability by sensing intracellular concentrations of ATP and adenosine diphosphate (ADP). Under physiological conditions, ATP-dependent potassium channels (K(ATP)-channels) are predominantly closed due to inhibition by intracellular ATP (ATPi). However, when the ATPi concentration falls below certain values (like in pathological states such as acute myocardial ischaemia), the K(ATP)-channels open. […] Thus, the amount of IK(ATP) activation induced by these drugs serves as an indicator of the intracellular ATP-content.
In this example, guinea pig ventricular myocytes were isolated by Langendorff perfusion using collagenase, as is described in H. M. Piper et al., Culturing of calcium stable adult cardiac myocytes, J. Mol. Cell Cardiol. 14 (1982), pp. 397-412. The isolated myocytes were stored in a cell culture medium M 199 (Sigma™, St. Louis, Mo.), supplemented with 5 μg/ml penicillin and 5 IU/ml of streptomycin and were kept in an incubator at 37° C. All experiments were performed within 24 hours after isolation of the myocytes.
Membrane currents were recorded using the whole-cell single electrode voltage-clamp configuration of the patch-clamp technique (see O. P. Hamill et al., Improved patch-clamp techniques for high-resolution current recording from cells and cell-free membrane patches, Pflüger's Arch. 391 (1981), pp. 85-100) using a List L/M-EPC 7 amplifier (List™, Darmstadt, Germany) as previously described by Pelzmann and coworkers in B. Pelzmann et al., Effects of K^+ channel openers on IK(ATP) of human atrial myocytes at physiological temperatures, Naunyn-Schmiedeberg's Arch. […] Only quiescent rod-shaped cells with clear cross striation were used for voltage-clamp experiments. Cell membrane capacitance (Cm) was determined by integration of the capacitive transient elicited by a 10 mV hyperpolarizing pulse from −50 mV. Cm (up to 100 pF) and series resistance (Rs, by at least 50%) were compensated. Voltage-clamp pulses were generated with an IBM-compatible computer connected to a D/A and A/D converter (Digidata 1200™, Axon Instruments, Foster City, USA). Data acquisition and analyses were performed using pCLAMP 5.7.1 software (Axon Instruments). In order to allow equilibration of the pipette solution with the cytosol, current recordings were started five minutes after rupture of the membrane patch.
Two experimental protocols were used in these examples. Modulation of IK(ATP) by drugs was evaluated as the change of outward current density (current amplitudes divided by Cm (pA/pF) in order to compensate for variations in cell size) at +30 mV in response to a 2 second ramp from −100 to +60 mV (Iramp). Time course of IK(ATP) activation and blockade was studied by recording the holding current at −40 mV (Ihold(−40 mV)). Stock solutions of IK(ATP) channel blocker glibenclamide (Sigma™) and of K(ATP) channel opener pinacidil (Sigma™) were prepared in dimethyl sulfoxide (DMSO). Averaged data are expressed as a mean±standard deviation (or standard error of the mean, SEM), with n=number of cells. Error bars in the figures represent standard deviations (except in FIG. 5).
(§1) Statistical significance was determined by a two-tailed Student's t-test or, if more than two conditions were compared, by one-way analysis of variance (ANOVA) with the LSD (least significant difference) post hoc test. Differences were considered significant when P<0.05.

rat striatal slices = settings: cited from earlier work
cardiomyocytes = test: HPLC determination of intracellular adenine nucleotide content of cardiomyocytes; format: cell-based, guinea pig; settings: four hours
Protocol: The analytical method used for the determination of adenine nucleotides was that reported in Hallström, S. et al., “S-nitroso human serum albumin treatment reduces ischemia/reperfusion injury in skeletal muscle via nitric oxide release,” Circulation, 105 (2002), 3023-3038 (“Hallström et al.”). In brief, the only alterations from the analytical method reported by Hallström et al. were as follows: separation was performed on a Hypersil ODS column (5 μm, 250 mm×4 mm I.D.) using a Waters™ 717 plus Autosampler, two constaMetric™ III pumps, a gradient controller (LDC/Milton Roy) and a Waters™ 969 photodiode array detector; detector signals (absorbance at 254 nm) were recorded with an AGC™ Personal Computer; and the program Millennium (Waters™) was used for data requisition and analysis. Cardiomyocytes were deproteinized with 250 μL of 0.4 M/L perchloric acid. After centrifugation (12,000 g), 200 μL of the acid extract were neutralized with 12.5 μL of 2 M potassium carbonate (4° C.). The supernatant (10 μL) obtained after centrifugation was used for High Performance Liquid Chromatography (HPLC) analysis. The pellets of the acid extract were dissolved in 1 mL of 0.1 M sodium hydroxide and further diluted 1:10 with physiologic saline for protein determination (BCA Protein Assay, Pierce). The percentage of living cells was estimated by determining the ratio of the number of rod shaped to rounded myocytes. At least 600 myocytes were counted for each preparation.
as §1

[2] = incubation in amounts equimolar to 400 μg/ml NADH

SMILES: NC(=O)C1=CN(C2OC(COP(=O)([O-])OP(=O)([O-])OCC3OC(n4cnc5c(N)ncnc54)C(O)C3O)C(O)C2O)C=CC1.[Na+].[Na+] (stereo not drawn) [NADH, β-nicotinamide adenine dinucleotide, reduced form, disodium salt]
- dopamine production (PC 12 cells): increased dopamine production
- outward current density at +30 mV after application of pinacidil ([1]; incubation 200 μg/ml, 30 μM pinacidil, 4.3 mM ATPi): 25.4±3.97 pA/pF
- outward current density at +30 mV under control conditions ([1]; incubation 200 μg/ml, 4-6 hours): 1.82±0.33 pA/pF
- outward current density after washout of pinacidil ([1]; incubation 300 μg/ml): 1.09±0.14 pA/pF
- outward current density at +30 mV under control conditions ([1]; incubation 300 μg/ml, 4-6 hours): 1.72±0.19 pA/pF
- outward current density at +30 mV under control conditions ([1]; incubation 400 μg/ml, 4-6 hours): 1.70±0.18 pA/pF
- outward current density after washout of pinacidil ([1]; incubation 800 μg/ml): 1.75±0.48 pA/pF
- outward current density at +30 mV under control conditions ([1]; incubation 800 μg/ml, 4-6 hours): 1.76±0.36 pA/pF
- outward current density at +30 mV under control conditions ([1]; incubation 1600 μg/ml, 4-6 hours): 2.53±0.49 pA/pF
- dopamine release (rat striatal slices): increase of dopamine release
- ATP content in cardiomyocytes (cardiomyocytes; 400 mcg per ml cell culture medium, control 35.35±2.57): 45.59±1.88 nmol/mg protein of living cells
- ADP content in cardiomyocytes compared to control (cardiomyocytes; 400 mcg per ml): no significant alteration
- AMP content in cardiomyocytes compared to control (cardiomyocytes; 400 mcg per ml): no significant alteration

SMILES: NC(=O)c1ccc[n+]([C@@H]2O[C@H](COP(=O)([O-])OP(=O)(O)OC[C@H]3O[C@@H](n4cnc5c(N)ncnc54)[C@H](O)[C@@H]3O)[C@@H](O)[C@H]2O)c1 [NAD^+, β-nicotinamide adenine dinucleotide, oxidized form]
- outward current density after washout of pinacidil [1, 2]: 1.44±0.25 pA/pF
- outward current density at +30 mV after addition of 30 μM pinacidil [1, 2]: 29.0±7.01 pA/pF
- outward current density at +30 mV under control conditions [1, 2]: 1.96±0.20 pA/pF

SMILES: COc1ccc(Cl)cc1C(=O)NCCc1ccc(S(=O)(=O)NC(=O)NC2CCCCC2)cc1 [glibenclamide]
- inhibition of pinacidil-activated IK(ATP) ([1]; 1 μM glibenclamide after 30 μM pinacidil): completely inhibited
- effect on basal Iramp ([1]; physiological conditions, 4.3 mM ATPi, data not shown): did not affect Iramp

SMILES: CC(N/C(=N\C#N)Nc1ccncc1)C(C)(C)C (stereo not drawn) [pinacidil]
- outward current density at +30 mV (Iramp) ([1]; 30 μM pinacidil, 1 mM ATPi): 52.2±13.8 pA/pF
- outward current density at +30 mV (Iramp) ([1]; 30 μM pinacidil, 4.3 mM ATPi, control myocytes): 28.9±3.38 pA/pF and 28.3±3.26 pA/pF
- outward current density at +30 mV after washout ([1]; after washout of 30 μM pinacidil (5 minutes), control myocytes): 1.81±0.22 pA/pF and 1.81±0.21 pA/pF

SMILES: NC(=O)c1cccnc1 [nicotinamide]
- outward current density after washout of pinacidil [1, 2]: 1.13±0.15 pA/pF
- outward current density at +30 mV after addition of 30 μM pinacidil [1, 2]: 30.5±4.83 pA/pF
- outward current density at +30 mV under control conditions [1, 2]: 2.01±0.36 pA/pF
